Data published in patent US6335327B1, “Benzoheterocyclic derivatives” (Otsuka Pharmaceuticals Co., Ltd., priority 1994, dated 2002).

melting point [°C] | SMILES
230 to 232 | COc1cc(C(=O)N2CCCCc3cc(Cl)ccc32)ccc1NC(=O)N(C)C [Example 146, 7-chloro-1-(3-methoxy-4-dimethylaminocarbonylaminobenzoyl)-2,3,4,5-tetrahydro-1H-benzazepine]
194 to 195 | Cc1cc(NC(=O)CO)ccc1C(=O)N1CCCCc2cc(Cl)ccc21 [Example 722, 7-chloro-1-[2-methyl-4-(2-hydroxyacetylamino)benzoyl]-2,3,4,5-tetrahydro-1H-benzazepine]
181 to 184 | O=C(Nc1ccc(C(=O)N2CCCCc3ccccc32)c(Cl)c1)OCc1ccncc1 [Example 725, 1-{4-[(4-pyridyl)methoxycarbonylamino]-2-chlorobenzoyl}-2,3,4,5-tetrahydro-1H-benzazepine]

Continued, molecule first:

SMILES | melting point [°C]
COc1cc(NCCOc2ccccc2C)ccc1C(=O)N1CCCC(CC(=O)N2CCN(C)CC2)c2cc(Cl)ccc21 (stereo not drawn) [Example 139, 7-chloro-5-[(4-methyl-1-piperazinyl)carbonylmethyl]-1-[2-methoxy-4-[2-(2-methylphenoxy)ethylamino]benzoyl}-2,3,4,5-tetrahydro-1H-benzazepine] | 160 to 161
COc1cc(NCc2ccccc2C)ccc1C(=O)N1CCCC(CC(=O)N2CCN(C)CC2)c2cc(Cl)ccc21 (stereo not drawn) [Example 142, 7-chloro-5-[(4-methyl-1-piperazinyl)carbonylmethyl]-1-[2-methoxy-4-(2-methylbenzylamino)benzoyl]-2,3,4,5-tetrahydro-1H-benzazepine] | 153 to 154.5
O=C(O)CC1CCCN(C(=O)c2ccc(NC(=O)COc3ccccc3)cc2)c2ccccc21 (stereo not drawn) [Example 721, 5-carboxymethyl-1-[4-(2-phenoxyacetylamino)benzoyl]-2,3,4,5-tetrahydro-1H-benzazepine] | 102 to 106
O=C(Nc1ccc(C(=O)N2CCCCc3ccccc32)c(Cl)c1)OCCOc1ccccc1 [Example 726, 1-[4-(2-phenoxyethoxycarbonylamino)-2-chlorobenzoyl]-2,3,4,5-tetrahydro-1H-benzazepine] | 144 to 146
CN1CCN(c2ccc(C(=O)N3CCCCc4ccccc43)c(Cl)c2)CC1 [Example 728, 1-[4-(4-methyl-1-piperazinyl)-2-chlorobenzoyl]-2,3,4,5-tetrahydro-1H-benzazepine] | 138 to 140
O=C(c1ccc(-c2ccccc2)cc1Cl)N1CCCC(Cc2nnn[nH]2)c2ccccc21 (stereo not drawn) [Example 730, 5-(5-tetrazolyl)methyl-1-(4-phenyl-2-chlorobenzoyl)-2,3,4,5-tetrahydro-1H-benzazepine] | 191 to 194
